Measurements as given in US20060166900A1, “Salt of morphine-6-glucuronide” (CeNeS Limited, priority 2002, published 2006).

How the values were obtained:
Format in all cases: physicochemical
[1] = Visual appearance on storage (Example 3)
Description: (§1) Each test material was stored between 2-8*C prior to placing on stability. Each material was sub-divided into 900 mg aliquots, transferred to brown opaque HDPE plastic bottles and flushed with Argon prior to sealing. Sufficient samples were provided for each time point as well as spares for each storage condition. The samples were placed in appropriate incubators previously commissioned at storage conditions 25° C./60% RH, 40° C./75% RH and 60° C.
The samples were stored for analysis according to the following table: […]

[2] = Colour of solution by visible spectrophotometry on storage (Example 3); conditions: 5% w/v solution in water
Description: Colour of solution by UV spectrophotometry.
as §1
Colour by Visible Spectrophotometry
A 5% w/v solution of test material was prepared in water and the absorbance measured at 420 nm in a 1 cm silica cell using a Unicam UV4 Visible/UV spectrophotometer.

[3] = Water content by Karl Fisher analysis on storage (Example 3)
Description: Water content (% w/w) by Karl Fisher analysis
as §1
Water Content by Karl Fisher Analysis
Water content was determined in duplicate on an aliquot of equilibrated material (approximately 100 mg) using a Tritrino 720 KFS Titrator.

[4] = Stability of M6G salts at room temperature over 6 years, HPLC; conditions: for Assay M6G corr.: content calculated as M6G derivative
[5] = Stability indicating HPLC assay and related substances on storage (Example 3)
Description: Assay (% w/w) and related substances determination
as §1
Testing Procedures Test for Identity Content and Impurities
Testing was performed in duplicate (2×25 mg) in accordance with a stability indicating HPLC assay method. The assay results were reported as M6G as is, M6G as the anhydrous, solvent free material and the anhydrous solvent free material corrected for the salt form using the relevant conversion factor.

[6] = almost 6 years at room temperature

CN1CCC23c4c5ccc(O)c4OC2C(OC2OC(C(=O)O)C(O)C(O)C2O)C=CC3C1C5.CN1CCC23c4c5ccc(O)c4OC2C(OC2OC(C(=O)O)C(O)C(O)C2O)C=CC3C1C5.O=S(=O)(O)O (centres unmarked) [Morphine-6-glucuronide sulphate]
Appearance ([1]; 1 month, 25° C./60% RH): White crystalline powder
Appearance ([1]; 1 month, 40° C./75% RH): Slightly yellow crystalline powder
Appearance ([1]; 1 month, 60° C.): Pale yellow crystalline powder
Appearance ([1]; 3 months, 25° C./60% RH): Pale yellow crystalline powder
Appearance ([1]; 3 months, 40° C./75% RH): Slightly yellow crystalline powder
Appearance ([1]; Initial): White crystalline powder
Colour ([2]; 1 month, 25° C./60% RH): 0.244 Abs@420 nm
Colour ([2]; 1 month, 40° C./75% RH): 0.430 Abs@420 nm
Colour ([2]; 1 month, 60° C.): 1.714 Abs@420 nm
Colour ([2]; 3 months, 25° C./60% RH): 0.406 Abs@420 nm
Colour ([2]; 3 months, 40° C./75% RH): 1.056 Abs@420 nm
Colour ([2]; Initial): 0.136 Abs@420 nm
Moisture ([3]; 1 month, 25° C./60% RH): 4.28 % w/w
Moisture ([3]; 1 month, 40° C./75% RH): 5.93 % w/w
Moisture ([3]; 1 month, 60° C.): 4.68 % w/w
Moisture ([3]; 3 months, 25° C./60% RH): 5.54 % w/w
Moisture ([3]; 3 months, 40° C./75% RH): 8.31 % w/w
Moisture ([3]; Initial): 3.77 % w/w
HN-33177 ([4]; 0 years): 0.2%
HN-75083 ([4]; 0 years): <0.1%
Unknown related substances (sum area %) ([4]; 0 years): 0.2 area %
Assay M6G corr. ([4]; 0 years): 93.6%
HN-33177 ([4]; 6 years at ambient temperature): 0.3%
HN-67002 ([4]; 6 years at ambient temperature): 1.1%
HN-67003 ([4]; 6 years at ambient temperature): 1.8%
Morphine ([4]; 6 years at ambient temperature): 0.2%
Unknown related substances (sum area %) ([4]; 6 years at ambient temperature): 10.7 area %
Assay M6G corr. ([4]; 6 years at ambient temperature): 76.8%
HN-33177 ([4]; 6 years at ambient temperature, listed as M6G2.H2SO4): did not change
largest unidentified peak [4, 6]: 6.55 area %
peaks present in the chromatogram that cannot be identified by retention time [4, 6]: 13
Known Related Substances HN33177 ([5]; 1 month, 25° C./60% RH): 0.63%
Known Related Substances HN67003 ([5]; 1 month, 25° C./60% RH): 0.69%
Known Related Substances HN75083 ([5]; 1 month, 25° C./60% RH): 0.27%
M6G Assay, Anhydrous basis ([5]; 1 month, 25° C./60% RH): 81.82 % w/w
M6G Assay, As is basis ([5]; 1 month, 25° C./60% RH): 73.58 % w/w
M6G Assay, Corrected for the salt form ([5]; 1 month, 25° C./60% RH): 90.51 % w/w
Total Known ([5]; 1 month, 25° C./60% RH): 1.59%
Total Related Substances ([5]; 1 month, 25° C./60% RH): 4.29%
Total Unknown ([5]; 1 month, 25° C./60% RH): 2.70%
Known Related Substances HN33177 ([5]; 1 month, 40° C./75% RH): 0.50%
Known Related Substances HN67003 ([5]; 1 month, 40° C./75% RH): 1.58%
Known Related Substances HN75076 ([5]; 1 month, 40° C./75% RH): 0.06%
Known Related Substances HN75083 ([5]; 1 month, 40° C./75% RH): 0.74%
Known Related Substances Morphine ([5]; 1 month, 40° C./75% RH): 0.21%
M6G Assay, Anhydrous basis ([5]; 1 month, 40° C./75% RH): 73.67 % w/w
M6G Assay, As is basis ([5]; 1 month, 40° C./75% RH): 65.04 % w/w
M6G Assay, Corrected for the salt form ([5]; 1 month, 40° C./75% RH): 81.50 % w/w
Total Known ([5]; 1 month, 40° C./75% RH): 3.09%
Total Related Substances ([5]; 1 month, 40° C./75% RH): 9.78%
Total Unknown ([5]; 1 month, 40° C./75% RH): 6.69%
Known Related Substances HN33177 ([5]; 1 month, 60° C.): 0.23%
Known Related Substances HN67003 ([5]; 1 month, 60° C.): 2.73%
Known Related Substances HN75076 ([5]; 1 month, 60° C.): 0.26%
Known Related Substances HN75083 ([5]; 1 month, 60° C.): 0.61%
Known Related Substances Morphine ([5]; 1 month, 60° C.): 0.72%
M6G Assay, Anhydrous basis ([5]; 1 month, 60° C.): 63.84 % w/w
M6G Assay, As is basis ([5]; 1 month, 60° C.): 57.15 % w/w
M6G Assay, Corrected for the salt form ([5]; 1 month, 60° C.): 70.62 % w/w
Total Known ([5]; 1 month, 60° C.): 4.55%
Total Related Substances ([5]; 1 month, 60° C.): 18.25%
Total Unknown ([5]; 1 month, 60° C.): 13.70%
Known Related Substances HN33177 ([5]; 3 months, 25° C./60% RH): 0.52%
Known Related Substances HN67003 ([5]; 3 months, 25° C./60% RH): 1.36%
Known Related Substances HN75083 ([5]; 3 months, 25° C./60% RH): 0.53%
Known Related Substances Morphine ([5]; 3 months, 25° C./60% RH): 0.17%
M6G Assay, Anhydrous basis ([5]; 3 months, 25° C./60% RH): 77.05 % w/w
M6G Assay, As is basis ([5]; 3 months, 25° C./60% RH): 69.08 % w/w
M6G Assay, Corrected for the salt form ([5]; 3 months, 25° C./60% RH): 85.24 % w/w
Total Known ([5]; 3 months, 25° C./60% RH): 2.58%
Total Related Substances ([5]; 3 months, 25° C./60% RH): 9.16%
Total Unknown ([5]; 3 months, 25° C./60% RH): 6.58%
Known Related Substances HN33177 ([5]; 3 months, 40° C./75% RH): 0.23%
Known Related Substances HN67003 ([5]; 3 months, 40° C./75% RH): 1.72%
Known Related Substances HN75076 ([5]; 3 months, 40° C./75% RH): 0.04%
Known Related Substances HN75083 ([5]; 3 months, 40° C./75% RH): 0.58%
Known Related Substances Morphine ([5]; 3 months, 40° C./75% RH): 0.37%
M6G Assay, Anhydrous basis ([5]; 3 months, 40° C./75% RH): 68.38 % w/w
M6G Assay, As is basis ([5]; 3 months, 40° C./75% RH): 59.39 % w/w
M6G Assay, Corrected for the salt form ([5]; 3 months, 40° C./75% RH): 75.64 % w/w
Total Known ([5]; 3 months, 40° C./75% RH): 2.75%
Total Related Substances ([5]; 3 months, 40° C./75% RH): 17.98%
Total Unknown ([5]; 3 months, 40° C./75% RH): 15.23%
stability assessment ([5]; 25° C./60% RH, three months): least stable
Known Related Substances HN33177 ([5]; Initial): 0.69%
Known Related Substances HN67003 ([5]; Initial): 0.15%
Known Related Substances HN75076 ([5]; Initial): 0.01%
Known Related Substances HN75083 ([5]; Initial): 0.23%
M6G Assay, Anhydrous basis ([5]; Initial): 88.49 % w/w
M6G Assay, As is basis ([5]; Initial): 80.62 % w/w
M6G Assay, Corrected for the salt form ([5]; Initial): 97.87 % w/w
Total Known ([5]; Initial): 1.08%
Total Related Substances ([5]; Initial): 1.72%
Total Unknown ([5]; Initial): 0.64%
overall stability comparison ([5]; overall review of Example 3 data): least stable
